Publication PMC11357638 (Molecules, 2024)
Where a chain is given by its changes, count along the chain named. Where “and” joins values, the source holds several entries; their conditions need not be identical. Equal values may be shown once.

Experiments:
hTRPV3 L669A mutant = target: T1, hTRPV3 L669A mutant (Homo sapiens, UniProt Q8NET8, L669A); experiment: cell-based
T1 sequence (Q8NET8 1-790 L669A): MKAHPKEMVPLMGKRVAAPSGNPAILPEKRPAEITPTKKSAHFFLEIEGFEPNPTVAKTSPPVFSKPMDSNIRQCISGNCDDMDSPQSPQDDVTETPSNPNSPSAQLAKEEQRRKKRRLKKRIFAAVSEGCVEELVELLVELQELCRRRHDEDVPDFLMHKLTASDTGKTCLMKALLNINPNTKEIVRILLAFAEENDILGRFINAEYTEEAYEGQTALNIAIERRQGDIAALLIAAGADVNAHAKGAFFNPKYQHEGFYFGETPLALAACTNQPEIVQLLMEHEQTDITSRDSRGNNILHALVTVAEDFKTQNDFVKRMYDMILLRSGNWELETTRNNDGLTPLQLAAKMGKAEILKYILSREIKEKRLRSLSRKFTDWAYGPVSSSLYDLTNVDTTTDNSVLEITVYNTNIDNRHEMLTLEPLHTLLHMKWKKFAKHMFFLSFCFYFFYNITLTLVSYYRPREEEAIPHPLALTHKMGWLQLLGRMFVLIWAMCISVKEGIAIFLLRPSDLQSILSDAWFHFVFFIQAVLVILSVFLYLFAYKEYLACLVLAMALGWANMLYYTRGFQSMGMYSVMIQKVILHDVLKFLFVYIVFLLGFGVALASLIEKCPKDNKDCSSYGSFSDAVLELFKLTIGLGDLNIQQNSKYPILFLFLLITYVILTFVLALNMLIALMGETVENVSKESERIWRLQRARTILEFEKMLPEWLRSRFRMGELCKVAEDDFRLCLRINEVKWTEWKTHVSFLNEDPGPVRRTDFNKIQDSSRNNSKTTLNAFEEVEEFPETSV

[1] = target: T2, human TRPV1 (hTRPV1) channels (Homo sapiens, UniProt Q8NER1); experiment: Whole-cell patch-clamp selectivity, hTRPV1 in HEK293T cells; type: cell-based; conditions: HEK-293T; CA at 1000 μM, current caused by 1 μM capsaicin, mean ± SD, n = 5
T2 construct: expressed in transfected cells; host or cells: HEK293T
T2 sequence (Q8NER1 whole entry): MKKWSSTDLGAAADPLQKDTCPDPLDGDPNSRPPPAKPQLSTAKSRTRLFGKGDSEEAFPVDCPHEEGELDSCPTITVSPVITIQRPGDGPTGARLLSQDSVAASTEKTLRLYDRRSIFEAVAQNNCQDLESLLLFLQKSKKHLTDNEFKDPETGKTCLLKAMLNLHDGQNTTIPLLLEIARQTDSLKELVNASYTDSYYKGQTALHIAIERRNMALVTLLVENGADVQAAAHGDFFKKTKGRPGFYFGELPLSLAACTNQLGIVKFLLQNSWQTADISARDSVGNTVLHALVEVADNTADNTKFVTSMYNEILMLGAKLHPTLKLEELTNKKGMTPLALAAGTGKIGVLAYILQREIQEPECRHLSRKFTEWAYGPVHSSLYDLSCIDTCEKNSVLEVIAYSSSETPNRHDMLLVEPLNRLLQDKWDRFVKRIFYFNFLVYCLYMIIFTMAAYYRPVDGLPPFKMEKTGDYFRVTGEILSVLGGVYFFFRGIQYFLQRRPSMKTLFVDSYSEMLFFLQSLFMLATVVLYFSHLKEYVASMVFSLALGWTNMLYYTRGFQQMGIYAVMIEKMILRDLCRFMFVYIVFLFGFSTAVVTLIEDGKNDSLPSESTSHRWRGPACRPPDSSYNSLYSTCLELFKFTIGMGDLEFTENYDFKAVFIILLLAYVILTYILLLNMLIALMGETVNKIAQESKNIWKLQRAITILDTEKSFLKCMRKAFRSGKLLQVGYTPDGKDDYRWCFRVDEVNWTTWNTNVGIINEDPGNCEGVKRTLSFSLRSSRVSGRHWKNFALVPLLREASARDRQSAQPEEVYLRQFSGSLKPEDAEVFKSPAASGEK

hTRPV3 L670A mutant = target: T3, hTRPV3 L670A mutant (Homo sapiens, UniProt Q8NET8, L670A); experiment: Whole-cell patch-clamp of hTRPV3 L670A mutant in HEK293T cells; type: cell-based; conditions: 50 μM 2-APB
T3 construct: expressed in transfected cells; host or cells: HEK293T
T3 sequence (Q8NET8 1-790 L670A): T1 sequence (Q8NET8 1-790 L669A) with A669L, L670A

[2] = target: T4, human TRPA1 (hTRPA1) channels (Homo sapiens, UniProt O75762); experiment: Whole-cell patch-clamp selectivity, hTRPA1 in HEK293T cells; type: cell-based; conditions: CA at 1000 μM, current induced by AITC at 300 μM, mean ± SD, n = 5
T4 construct: expressed in transfected cells; host or cells: HEK293T
T4 sequence (O75762 whole entry): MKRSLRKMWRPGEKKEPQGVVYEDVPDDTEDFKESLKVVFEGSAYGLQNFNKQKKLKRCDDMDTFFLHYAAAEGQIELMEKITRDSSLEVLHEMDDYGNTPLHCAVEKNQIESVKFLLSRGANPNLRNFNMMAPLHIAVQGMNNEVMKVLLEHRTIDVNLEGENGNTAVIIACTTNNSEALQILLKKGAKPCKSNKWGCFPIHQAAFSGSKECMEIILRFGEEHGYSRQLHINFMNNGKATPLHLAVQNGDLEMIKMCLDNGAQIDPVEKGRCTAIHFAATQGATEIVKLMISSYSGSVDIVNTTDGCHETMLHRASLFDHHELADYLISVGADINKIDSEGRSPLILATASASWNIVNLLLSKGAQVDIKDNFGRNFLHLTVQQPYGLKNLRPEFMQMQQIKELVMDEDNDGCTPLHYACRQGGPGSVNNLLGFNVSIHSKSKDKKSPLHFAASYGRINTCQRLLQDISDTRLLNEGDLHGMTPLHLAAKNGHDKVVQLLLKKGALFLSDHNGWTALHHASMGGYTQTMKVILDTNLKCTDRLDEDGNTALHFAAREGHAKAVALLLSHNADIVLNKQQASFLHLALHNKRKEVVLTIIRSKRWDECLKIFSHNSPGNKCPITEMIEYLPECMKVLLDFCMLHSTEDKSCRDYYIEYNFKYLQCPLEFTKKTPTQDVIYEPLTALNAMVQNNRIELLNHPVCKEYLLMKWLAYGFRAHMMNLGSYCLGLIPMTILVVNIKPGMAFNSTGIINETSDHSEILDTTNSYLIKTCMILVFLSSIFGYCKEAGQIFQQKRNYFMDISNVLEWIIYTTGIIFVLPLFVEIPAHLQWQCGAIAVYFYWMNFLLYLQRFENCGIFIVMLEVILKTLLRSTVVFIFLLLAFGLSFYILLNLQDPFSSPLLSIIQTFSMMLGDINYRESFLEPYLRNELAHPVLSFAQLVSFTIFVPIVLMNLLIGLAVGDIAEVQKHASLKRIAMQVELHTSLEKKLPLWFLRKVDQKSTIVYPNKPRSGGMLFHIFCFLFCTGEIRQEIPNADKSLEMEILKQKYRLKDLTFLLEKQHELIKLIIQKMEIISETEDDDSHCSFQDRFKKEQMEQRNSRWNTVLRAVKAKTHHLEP

[3] = system: TRPV3-mediated skin inflammation induced by carvacrol; experiment: Mouse model of dorsal skin dermatitis induced by skin sensitizer carvacrol; type: in vivo, C57BL/6J mice; conditions: mice, subcutaneous CA 0.1 and 1 mM (100 μL) once a day for 5 days, topical 2% carvacrol, versus carvacrol model group
[4] = target: T5, human TRPM8 (hTRPM8) channels (Homo sapiens, UniProt Q7Z2W7); experiment: Whole-cell patch-clamp selectivity, hTRPM8 in HEK293T cells; type: cell-based; conditions: HEK-293T; 1000 μM CA, current caused by 500 μM menthol, mean ± SD, n = 5
T5 construct: expressed in transfected cells; host or cells: HEK293T
T5 sequence (Q7Z2W7 whole entry): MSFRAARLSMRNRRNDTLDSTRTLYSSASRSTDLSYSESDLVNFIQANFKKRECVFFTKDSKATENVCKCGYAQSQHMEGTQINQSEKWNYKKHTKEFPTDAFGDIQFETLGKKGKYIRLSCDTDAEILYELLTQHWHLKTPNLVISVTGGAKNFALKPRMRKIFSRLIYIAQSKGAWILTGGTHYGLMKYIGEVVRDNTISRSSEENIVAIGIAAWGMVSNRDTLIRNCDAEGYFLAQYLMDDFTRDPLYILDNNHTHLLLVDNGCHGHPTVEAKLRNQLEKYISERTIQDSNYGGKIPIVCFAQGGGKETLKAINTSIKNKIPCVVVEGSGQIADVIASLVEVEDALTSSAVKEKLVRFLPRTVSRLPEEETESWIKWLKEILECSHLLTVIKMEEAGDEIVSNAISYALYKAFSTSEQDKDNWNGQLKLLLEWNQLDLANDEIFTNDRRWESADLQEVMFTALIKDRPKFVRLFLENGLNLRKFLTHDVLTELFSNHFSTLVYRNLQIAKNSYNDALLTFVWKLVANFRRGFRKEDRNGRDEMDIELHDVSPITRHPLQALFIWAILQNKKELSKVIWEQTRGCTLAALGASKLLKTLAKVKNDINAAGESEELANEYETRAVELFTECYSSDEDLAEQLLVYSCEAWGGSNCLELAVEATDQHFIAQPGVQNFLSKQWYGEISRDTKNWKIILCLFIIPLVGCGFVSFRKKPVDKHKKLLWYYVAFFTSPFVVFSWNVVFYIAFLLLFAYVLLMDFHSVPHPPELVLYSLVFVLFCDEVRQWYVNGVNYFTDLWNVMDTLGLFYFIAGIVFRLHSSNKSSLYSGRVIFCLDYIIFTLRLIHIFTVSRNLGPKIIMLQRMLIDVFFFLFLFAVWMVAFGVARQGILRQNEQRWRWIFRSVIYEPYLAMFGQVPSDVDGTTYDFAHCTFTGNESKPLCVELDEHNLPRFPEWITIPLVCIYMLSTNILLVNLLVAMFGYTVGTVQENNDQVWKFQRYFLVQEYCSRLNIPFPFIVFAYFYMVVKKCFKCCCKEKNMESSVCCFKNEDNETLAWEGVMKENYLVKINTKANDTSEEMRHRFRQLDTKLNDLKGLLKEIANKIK

[5] = target: T6, human TRPV3 (hTRPV3) channel (Homo sapiens, UniProt Q8NET8); experiment: Whole-cell patch-clamp of hTRPV3 currents in transfected HEK293T cells; type: cell-based; conditions: WT hTRPV3 in HEK293T, whole-cell, activated by 50 μM 2-APB, at +80 mV, Hill fit, mean ± SD; read-out: IC50, inhibition of hTRPV3 currents
T6 construct: expressed in transfected cells; host or cells: HEK293T
T6 sequence (Q8NET8 1-790): T1 sequence (Q8NET8 1-790 L669A) with A669L

O=C(O)/C=C/c1ccc(O)c(O)c1 [CA, caffeic acid]
IC50 (hTRPV3 L669A mutant): 180 ± 59.9 µM
inhibition at 1000 µM [1]: ~20%
channel current inhibition by 500 μM CA compared to WT (hTRPV3 L670A mutant): no significant difference
inhibition of human TRPA1 current [2]: about 22.9 ± 12.0%
epidermal thickness ([3]; H&E sections): reduced epidermal thickness
dermatitis scores [3]: significantly reduced the dermatitis scores
inhibition at 1000 µM [4]: ~20.1%
IC50 [5]: 102 µM and ~100 µM
